In publication PMC7765920 (Molecules, 2020):
Like-named read-outs stand apart in the source and are kept apart here. Marks after values point to notes of the source that are not given here.

Key:
[1] = molecular target: T1, GST-DYRK1A-ΔC (amino acids 1–499 of rat DYRK1A) (Rattus norvegicus, UniProt Q63470); test: Kinase-GLO luminescent assay of DYRK1A catalytic activity; type: biochemical; conditions: for remaining activity at 1 µM: read-out: DYRK1A residual activity
T1 construct: containing amino acids 1–499 of rat DYRK1A; made in house; host or cells: E. coli
Experimental: (§1) Optimization of the compounds, however, aimed predominantly at elimination of MAO-A-inhibitory activity while keeping DYRK1A inhibitory potency, and not at achieving high selectivity for DYRK1A over CLK1. The tests were performed as described by us before in detail. Due to the very large number of test compounds (more than 60), a first screening was performed at a single inhibitor concentration of 1 µM.
(§2) Inhibitors were dissolved in DMSO at a concentration of 10 mM and stored at […]. Working solutions were prepared to achieve a final concentration of 1 µM in the enzyme assays.
(§3) Recombinant kinases were purified from E. coli as GST (glutathione S-transferase) fusion constructs by affinity adsorption to glutathione-Sepharose. […] Catalytic activity of the kinases was measured with the help of the Kinase-GLO^TM Luminescent Assay from Promega. Assays were performed in a total volume of 10 μL in kinase buffer (25 mM Hepes pH 7.4, 0.5 mM DTT, 5 mM MgCl2, 5 μM ATP) with appropriate peptide substrates (20 μM DYRKtide for the DYRKs and 100 μM DYRKtide for HIPK2, […]; or 100 μM RS peptide for CLK1, […]). Kinases amounts in the assays were adjusted so that approximately 90% of the ATP in the assay was consumed in control samples without inhibitor. Kinase reactions were incubated at room temperature for 30 min before 10 μL Kinase-GLO reagent was added for luminometric measurement of the ATP that was not consumed by the kinases. After incubation at room temperature for an additional 10 min, luminescence was recorded for 1 s (Berthold Orion Microplate Luminometer). ATP consumption in the control samples without inhibitor was set as 100% catalytic activity, and the inhibitory effects of the test compounds were calculated relative to this value.

human recombinant MAO-A = molecular target: T2, human recombinant MAO-A (Homo sapiens, UniProt P21397); test: MAO-GLO luminescence assay of MAO-A catalytic activity; type: biochemical; conditions: for remaining activity at 1 µM: read-out: MAO-A residual activity
T2 sequence (P21397 1-527): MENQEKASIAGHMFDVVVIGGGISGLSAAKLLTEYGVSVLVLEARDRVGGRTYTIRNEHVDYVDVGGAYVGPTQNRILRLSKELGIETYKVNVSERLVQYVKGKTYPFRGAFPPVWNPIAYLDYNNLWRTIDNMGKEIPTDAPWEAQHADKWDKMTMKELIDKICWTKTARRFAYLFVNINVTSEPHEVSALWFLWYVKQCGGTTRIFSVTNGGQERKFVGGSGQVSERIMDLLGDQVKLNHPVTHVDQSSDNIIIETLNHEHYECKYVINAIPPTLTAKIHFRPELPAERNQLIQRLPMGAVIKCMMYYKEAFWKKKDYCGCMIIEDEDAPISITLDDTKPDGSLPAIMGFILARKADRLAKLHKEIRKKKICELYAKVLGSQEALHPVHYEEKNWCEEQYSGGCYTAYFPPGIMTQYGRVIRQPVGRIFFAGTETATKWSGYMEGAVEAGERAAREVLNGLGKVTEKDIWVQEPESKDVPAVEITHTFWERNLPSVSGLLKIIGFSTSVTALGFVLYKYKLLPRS
Experimental: as §1, §2
Catalytic activity of monoamine oxidase A (MAO-A) was measured by using the luminescence-based MAO-GLO^TM Assay from Promega. Recombinant MAO-A converts a luminogenic MAO substrate into luciferin, which is, in turn, luminometrically detected in a luciferase reaction. The amount of light produced is directly proportional to MAO activity. […] Inhibitory effects of the tested compounds were calculated relative to the activity of control reactions that were run in the absence of inhibitors.

[2] = molecular target: T3, GST-CLK1cat (amino acids 141–484 of human CLK1) (Homo sapiens, UniProt P49759); test: Kinase-GLO luminescent assay of CLK1 catalytic activity; type: biochemical; conditions: for remaining activity at 1 µM: read-out: CLK1 residual activity
T3 construct: containing amino acids 141–484 of human CLK1; made in house; host or cells: E. coli
Experimental: as §1, §2, §3

[3] = tested on: GST-DYRK1A-ΔC (amino acids 1–499 of rat DYRK1A); test: Kinase-GLO luminescent assay of DYRK1A catalytic activity; type: biochemical; conditions: ratio of the MAO-A and DYRK1A IC50 values of Table 2
[4] = 1 µM inhibitor concentration, residual activity relative to control without inhibitor

T3 sequence (P49759 141-484): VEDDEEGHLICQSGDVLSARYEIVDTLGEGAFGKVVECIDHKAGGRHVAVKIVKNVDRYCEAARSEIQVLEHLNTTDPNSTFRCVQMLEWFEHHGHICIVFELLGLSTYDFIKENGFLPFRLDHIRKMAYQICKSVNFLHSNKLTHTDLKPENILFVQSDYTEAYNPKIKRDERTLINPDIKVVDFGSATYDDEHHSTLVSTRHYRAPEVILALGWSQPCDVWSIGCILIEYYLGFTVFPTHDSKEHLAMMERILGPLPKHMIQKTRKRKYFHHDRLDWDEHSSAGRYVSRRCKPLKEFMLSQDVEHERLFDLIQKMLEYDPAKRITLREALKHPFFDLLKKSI

remaining activity at 1 µM [1, 4] | remaining activity at 1 µM (human recombinant MAO-A; [4]) | remaining activity at 1 µM [2, 4] | Compound | also measured
63% | 123% | 86% | COc1ccc2c3ccnc(Cl)c3n(CCCN(C)C)c2c1 [AnnH77, 3-(1-Chloro-7-methoxy-9H-pyrido[3,4-b]indol-9-yl)-N,N-dimethylpropan-1-amine] | melting point: 86 to 87 °C
47% | 110% | 90% | Cc1nccc2c3ccc(Cl)c(Cl)c3n(CCCN(C)C)c12 [AnnH71, 3-(7,8-Dichloro-1-methyl-9H-pyrido[3,4-b]-9-yl)-N,N-dimethylpropan-1-amine] | melting point: 126 to 128 °C
35% | 65% | 7% | COc1ccc2c(c1)/C(=C\C#N)c1c-2ccnc1C [AnnHT5, (2E)-(7-Methoxy-1-methyl-9H-indeno[2,1c]pyridin-9-ylidene)ethanenitrile] | –
37% | 46% | 27% | Cc1nccc2c1C(=O)c1cc(O)ccc1-2 [AnnHT6, 7-Hydroxy-1-methyl-9H-indeno-[2,1-c]pyridin-9-one] | –
33% | 70% | 77% | COc1ccc2c3ccnc(C)c3n(CCN3CCOCC3)c2c1 [AnnH53, 4-[2-(7-Methoxy-1-methyl-9H-pyrido[3,4-b]indol-9-yl)-ethyl]morpholine] | melting point: 183 °C
93% | 143% | 88% | N#CCn1c2c(Br)nccc2c2ccc(Cl)c(Cl)c21 [AnnH79, 2-(1-Bromo-7,8-dichloro-9H-pyrido[3,4-b]indol-9-yl)-acetonitrile] | –
71% | 100% | 97% | COc1ccc2c(c1)[nH]c1c(C)cccc12 [AnnHOG3, 7-Methoxy-1-methyl-9H-carbazole] | –
17% | 122% | 34% | C#CCn1c2c(C)nccc2c2ccc(Cl)c(Cl)c21 [AnnH67, 7,8-Dichloro-1-methyl-9-(prop-2-yn-1-yl)-9H-pyrido[3,4-b]indole] | –
47% | 137% | 52% | CCOC(=O)Cn1c2cc(OC)ccc2c2ccnc(CC)c21 [AnnH88, Ethyl 2-(1-ethyl-7-methoxy-9H-pyrido[3,4-b]indol-9-yl)acetate] | –
48% | 67% | 85% | COc1ccc2c3ccnc(C)c3n(CCN3CCCC3)c2c1 [AnnH55, 7-Methoxy-1-methyl-9-[2-(pyrrolidin-1-yl)ethyl]-9H-pyrido[3,4-b]indole] | –
26% | 78% | 71% | CCOC(=O)Cn1c2c(C)nccc2c2ccc(Cl)c(Cl)c21 [AnnH66, Ethyl 2-(7,8-Dichloro-1-methyl-9H-pyrido[3,4-b]-9-yl)acetate] | –
35% | 112% | 96% | CCOC(=O)Cn1c2cc(OC)ccc2c2ccnc(Cl)c21 [AnnH76, Ethyl 2-(1-Chloro-7-methoxy-9H-pyrido[3,4-b]indol-9-yl)acetate] | –

More lines, now with the values behind:

Compound | remaining activity at 1 µM [1, 4] | remaining activity at 1 µM (human recombinant MAO-A; [4]) | remaining activity at 1 µM [2, 4] | also measured
COc1ccc2c3ccnc(C)c3n(CC=C(C)C)c2c1 [AnnH73, 7-Methoxy-1-methyl-9-(3-methylbut-2-en-1-yl)-9H-pyrido[3,4-b]indole] | – | – | – | remaining activity at 1 µM [1]: 6%; remaining activity at 1 µM (human recombinant MAO-A): 52%; remaining activity at 1 µM [2]: 2%
COc1ccc2c3ccnc(C)c3n(C(C)C#N)c2c1 (racemic) [AnnH43, (±)-2-(7-Methoxy-1-methyl-9H-pyrido[3,4-b]indol-9-yl)propanenitrile] | 5% | 102% | 10% | Selectivity for DYRK1A over MAO-A [3]: 26
COc1ccc2c3ccnc(C)c3n(Cc3ccncc3)c2c1 [AnnH36, 7-Methoxy-1-methyl-9-(pyridin-4-yl-methyl)-9H-pyrido[3,4-b]indole] | 59% | 19% | 62% | –
harmol [reference compound] | – | – | – | DYRK1A residual activity [1, 4]: 18%; MAO-A residual activity (human recombinant MAO-A; [4]): 120%; CLK1 residual activity [2, 4]: 6 *** %
CCOC(=O)Cn1c2cc(OC)ccc2c2ccnc(C)c21 [AnnH12, Ethyl 2-(7-methoxy-1-methyl-9H-pyrido[3,4-b]indol-9-yl)acetate] | 30% | 101% | 45% | –
COc1ccc2c3ccnc(C)c3n(C/C=C/c3ccccc3)c2c1 [AnnH22, 7-Methoxy-1-methyl-9-((E)-3-phenylallyl)-9H-pyrido[3,4-b]indole] | 3% | 39% | 15% | –
COc1ccc2c3ccnc(C)c3n(CCC#N)c2c1 [AnnH42, 3-(7-Methoxy-1-methyl-9H-pyrido[3,4-b]indol-9-yl)propanenitrile] | 22% | 114% | 44% | –
7-Methoxy-1-methyl-9-(prop-2-yn-1-yl)-9H-pyrido[3,4-b]indole [AnnH70] | – | – | – | DYRK1A residual activity [1, 4]: 6%; MAO-A residual activity (human recombinant MAO-A; [4]): 18%; CLK1 residual activity [2, 4]: 17 *** %
COc1ccc2c3ccnc(C)c3n(CCCc3ccccc3)c2c1 [AnnH38, 7-Methoxy-1-methyl-9-(3-phenylpropyl)-9H-pyrido[3,4-b]indole] | 12% | 127% | 31% | –
C#CCn1c2cc(OC)ccc2c2ccnc(C)c21 [AnnH44, 7-Methoxy-1-methyl-9-(prop-2-yn-1-yl)-9H-pyrido[3,4-b]indole] | 2% | 22% | 17% | –
COc1ccc2c3ccnc(C)c3n(CC(=O)OC(C)C)c2c1 [AnnH27, Isopropyl 2-(7-methoxy-1-methyl-9H-pyrido[3,4-b]indol-9-yl)acetate] | 4% | 72% | 79% | –
COc1ccc2c3ccnc(C)c3n(CCOc3ccccc3)c2c1 [AnnH40, 7-Methoxy-1-methyl-9-(2-phenoxyethyl)-9H-pyrido[3,4-b]indole] | 40% | 30% | 37% | –
Cc1nccc2c1[nH]c1c(Cl)c(Cl)ccc12 [AnnH63, 7,8-Dichloro-1-methyl-9H-pyrido[3,4-b]indole] | 3% | 32% | 26% | –
COc1ccc(Cn2c3cc(OC)ccc3c3ccnc(C)c32)cc1 [AnnH35, 7-Methoxy-9-(4-methoxybenzyl)-1-methyl-9H-pyrido[3,4-b]indole] | 100% | 128% | 80% | –
COc1ccc2c3ccnc(C)c3n(CC(=O)N(C)C)c2c1 [AnnH34, 2-(7-Methoxy-1-methyl-9H-pyrido[3,4-b]indol-9-yl)-N,N-dimethylacetamide] | 75% | 130% | 78% | –
